Measured values: patent US20230121689A1, “CEPHALOSPORIN ANTIBACTERIAL COMPOUND AND PHARMACEUTICAL APPLICATION THEREOF” (priority 2020, published 2023)
Values after ≈ are worked out from the molar mass of the structure shown. Like-named read-outs stand apart in the source and are kept apart here.

Key:
Type in all cases: cell-based
[1] = test system: Carbapenem-resistant Acinetobacter baumannii (CRAB, Acinetobacter baumannii); experiment: Test Example 2: antibacterial activity test (MIC)
Protocol: (§1) 1. The test compounds were dissolved in sterile normal saline, vortexed for uniformly mixing, and diluted in a 2-fold dilution with the sterile normal saline (11 concentration points in total). The test concentration range was 32-0.031 μg/mL, and two duplicate wells were set for each concentration. Additional wells without drug dosing were set as growth controls. 2. 4 μL of the diluent was added to 196 μL of the bacterial suspension in a 96-well plate (the bacterial count in the bacterial suspension was 2-8×10^5 colony forming units/mL). 3.
(§2) The minimum inhibitory concentration (MIC) assay was performed with reference to the Clinical and Laboratory Standards Institute (CLSI) guidelines.

[2] = test system: Carbapenem-resistant Enterobacteriaceae (CRE, Klebsiella pneumoniae); experiment: Test Example 2: antibacterial activity test (MIC)
Protocol: as §1, §2

[3] = test system: Carbapenem-resistant Pseudomonas aeruginosa (CRPA, Pseudomonas aeruginosa); experiment: Test Example 2: antibacterial activity test (MIC)
Protocol: as §1, §2

[4] = test system: Control Strain Pseudomonas aeruginosa ATCC 27853; experiment: Test Example 2: antibacterial activity test (MIC)
Protocol: as §1, §2

[5] = test system: Control strain Escherichia coli ATCC 25922; experiment: Test Example 2: antibacterial activity test (MIC)
Protocol: as §1, §2

[6] = test system: Carbapenem-resistant Acinetobacter baumannii (CRAB); experiment: Test Example 1: antibacterial activity test (MIC)
Protocol: (§3) The test compounds were diluted in a gradient and used for an MIC assay on the test strains. The test compounds at an initial assay concentration of 32 μg/mL were diluted in a 2-fold gradient (11 concentration points in total), and two duplicate wells were set for each concentration. Additional wells without drug dosing were set as growth controls. The minimum inhibitory concentration (MIC) assay was performed with reference to the Clinical and Laboratory Standards Institute (CLSI) guidelines.
(§4) After the frozen strains were subcultured, a single colony was picked and re-suspended in normal saline or sterile water in a tube. The bacterial suspension was vortexed and adjusted to 0.5 McF using a spectrophotometer at the wavelength of 530 nm. The bacterial solution was taken by a pipette, added to a culture medium, diluted and mixed well, and seeded to a bacterial assay plate.
(§5) The 96-well plate was affixed with a disposable sealing film, shaken and mixed well, and visually observed using a plate reader. The minimum concentration of the compounds capable of inhibiting the growth of bacteria was defined as MIC as compared to the growth controls.

[7] = test system: Carbapenem-resistant Enterobacteriaceae (CRE); experiment: Test Example 1: antibacterial activity test (MIC)
Protocol: as §3, §4, §5

[8] = test system: Carbapenem-resistant Pseudomonas aeruginosa (CRPA); experiment: Test Example 1: antibacterial activity test (MIC)
Protocol: as §3, §4, §5

[9] = ID-CAMHB, FDA-CDC AR-BANK #0036 (strB, OXA-65, OXA-24, strA, sul2), read-out: ID-CAMHB, MIC
[10] = ID-CAMHB, FDA-CDC AR-BANK #0052 (OXA-58, OXA-100, sul2), read-out: ID-CAMHB, MIC
[11] = ID-CAMHB, FDA-CDC AR-BANK #0063 (OXA-23, OXA-65, OXA-24, sul2), read-out: ID-CAMHB, MIC
[12] = ID-CAMHB, FDA-CDC AR-BANK #0070 (OXA-58, OXA-100, sul2), read-out: ID-CAMHB, MIC
[13] = ID-CAMHB, FDA-CDC AR-BANK #0101 (strB, OXA-65, OXA-24, strA, sul2), read-out: ID-CAMHB, MIC
[14] = ID-CAMHB, FDA-CDC AR-BANK #0361 (TEM-1; SHV-12; KPC-2), read-out: ID-CAMHB, MIC
[15] = ID-CAMHB, FDA-CDC AR-BANK #0362 (TEM-1; SHV-11; KPC-2), read-out: ID-CAMHB, MIC
[16] = ID-CAMHB, FDA-CDC AR-BANK #0363 (TEM-1; SHV-12; KPC-2), read-out: ID-CAMHB, MIC
[17] = ID-CAMHB, FDA-CDC AR-BANK #0438 (aph(3′)-Ia, dfrA12, KPC-3, OmpK35, oqxA, oqxB, SHV-11), read-out: ID-CAMHB, MIC
[18] = ID-CAMHB, FDA-CDC AR-BANK #0453 (KPC-3, OmpK35, oqxA, oqxB, SHV-11, TEM-1B), read-out: ID-CAMHB, MIC
[19] = ID-CAMHB, FDA-CDC AR-BANK #0439 (aac(6′)-Il, aadA1b, BCR1, IMP-18, OXA-50), read-out: ID-CAMHB, MIC
[20] = ID-CAMHB, FDA-CDC AR-BANK #0441 (KPC-2), read-out: ID-CAMHB, MIC
[21] = ID-CAMHB, FDA-CDC AR-BANK #0444 (aac(6′)-Il, dfrB5, OXA-4, tet(G), VIM-2), read-out: ID-CAMHB, MIC
[22] = ID-CAMHB, FDA-CDC AR-BANK #0457 (aadA6, VIM-2), read-out: ID-CAMHB, MIC
[23] = ATCC27853, ID-CAMHB, ATCC 27853, read-out: ID-CAMHB, MIC
[24] = ATCC25922, ID-CAMHB, ATCC 25922, read-out: ID-CAMHB, MIC

SMILES | MIC [1, 9] | MIC [1, 10] | MIC [1, 11] | MIC [1, 12] | MIC [1, 13] | MIC [2, 14] | MIC [2, 15] | MIC [2, 16] | MIC [2, 17] | MIC [2, 18] | MIC [3, 19] | MIC [3, 20] | MIC [3, 21] | MIC [3, 22] | MIC [4, 23] | MIC [5, 24] | also measured
CC(=O)N(O)CC[N+]1(CC2=C(C(=O)O)N3C(=O)[C@@H](NC(=O)/C(=N\OC(C)(C)C(=O)O)c4csc(N)n4)[C@H]3SC2)CCCC1 [Compound 5] | > 32 µg/mL | > 32 µg/mL | > 32 µg/mL | > 32 µg/mL | > 32 µg/mL | > 32 µg/mL | > 32 µg/mL | > 32 µg/mL | > 32 µg/mL | > 32 µg/mL | > 32 µg/mL | > 32 µg/mL | > 32 µg/mL | > 32 µg/mL | > 32 µg/mL | > 32 µg/mL | 
CC(C)(O/N=C(\C(=O)N[C@@H]1C(=O)N2C(C(=O)[O-])=C(C[N+]3(CC4(NC(=O)c5ccc(O)c(O)c5Cl)CC4)CCCC3)CS[C@H]12)c1csc(N)n1)C(=O)O [Compound 2] | 0.5 µg/mL (≈ 0.642 µM) | 0.0625 µg/mL (≈ 0.0803 µM) | 16 µg/mL (≈ 20.6 µM) | 0.0625 µg/mL (≈ 0.0803 µM) | 0.5 µg/mL (≈ 0.642 µM) | 1 µg/mL (≈ 1.28 µM) | 0.5 µg/mL (≈ 0.642 µM) | 0.5 µg/mL (≈ 0.642 µM) | 1 µg/mL (≈ 1.28 µM) | 2 µg/mL (≈ 2.57 µM) | 0.5 µg/mL (≈ 0.642 µM) | 2 µg/mL (≈ 2.57 µM) | 4 µg/mL (≈ 5.14 µM) | 0.125 µg/mL (≈ 0.161 µM) | 0.0625 µg/mL (≈ 0.0803 µM) | 0.125 µg/mL (≈ 0.161 µM) | MIC ([6]; CRAB strain No. 100085): 0.5 µg/mL (≈ 0.642 µM); MIC ([6]; CRAB strain No. 100333): 2 µg/mL (≈ 2.57 µM); MIC ([6]; CRAB strain No. 110440): 3 µg/mL (≈ 3.85 µM); MIC ([6]; CRAB strain No. 110477): 2 µg/mL (≈ 2.57 µM); MIC ([6]; CRAB strain No. 110517): 0.5 µg/mL (≈ 0.642 µM); MIC ([7]; CRE strain No. 100109): 1 µg/mL (≈ 1.28 µM); MIC ([7]; CRE strain No. 100186): 1.5 µg/mL (≈ 1.93 µM); MIC ([7]; CRE strain No. 110502): 6 µg/mL (≈ 7.71 µM); MIC ([7]; CRE strain No. 110525): 2 µg/mL (≈ 2.57 µM); MIC ([7]; CRE strain No. 311277): 1.5 µg/mL (≈ 1.93 µM); MIC ([8]; CRPA strain No. 100110): 0.031 µg/mL (≈ 0.0398 µM); MIC ([8]; CRPA strain No. 110163): 0.5 µg/mL (≈ 0.642 µM); MIC ([8]; CRPA strain No. 110224): 0.75 µg/mL (≈ 0.964 µM); MIC ([8]; CRPA strain No. 110358): 1 µg/mL (≈ 1.28 µM); MIC ([8]; CRPA strain No. 110390): 0.5 µg/mL (≈ 0.642 µM)
C[C@H](CN(CCCNC(=O)c1ccc(O)c(O)c1Cl)C(=O)c1ccc(O)c(O)c1Cl)[N+]1(CC2=C(C(=O)O)N3C(=O)[C@@H](NC(=O)/C(=N\OC(C)(C)C(=O)O)c4csc(N)n4)[C@H]3SC2)CCCC1 [Compound 11] |  |  |  |  |  |  |  |  |  |  |  |  |  |  |  |  | MIC ([1]; read-out: ID-CAMHB, MIC, ID-CAMHB, FDA-CDC AR-BANK #0036 (strB, OXA-65, OXA-24, strA, sul2)): 0.5 µg/mL; MIC ([1]; read-out: ID-CAMHB, MIC, ID-CAMHB, FDA-CDC AR-BANK #0052 (OXA-58, OXA-100, sul2)): 0.125 µg/mL; MIC ([1]; read-out: ID-CAMHB, MIC, ID-CAMHB, FDA-CDC AR-BANK #0063 (OXA-23, OXA-65, OXA-24, sul2)): 4 µg/mL; MIC ([1]; read-out: ID-CAMHB, MIC, ID-CAMHB, FDA-CDC AR-BANK #0070 (OXA-58, OXA-100, sul2)): 0.25 µg/mL; MIC ([1]; read-out: ID-CAMHB, MIC, ID-CAMHB, FDA-CDC AR-BANK #0101 (strB, OXA-65, OXA-24, strA, sul2)): 1 µg/mL; MIC ([2]; read-out: ID-CAMHB, MIC, ID-CAMHB, FDA-CDC AR-BANK #0361 (TEM-1; SHV-12; KPC-2)): 1 µg/mL; MIC ([2]; read-out: ID-CAMHB, MIC, ID-CAMHB, FDA-CDC AR-BANK #0362 (TEM-1; SHV-11; KPC-2)): 0.25 µg/mL; MIC ([2]; read-out: ID-CAMHB, MIC, ID-CAMHB, FDA-CDC AR-BANK #0363 (TEM-1; SHV-12; KPC-2)): 0.5 µg/mL; MIC ([2]; read-out: ID-CAMHB, MIC, ID-CAMHB, FDA-CDC AR-BANK #0438 (aph(3′)-Ia, dfrA12, KPC-3, OmpK35, oqxA, oqxB, SHV-11)): 1 µg/mL; MIC ([2]; read-out: ID-CAMHB, MIC, ID-CAMHB, FDA-CDC AR-BANK #0453 (KPC-3, OmpK35, oqxA, oqxB, SHV-11, TEM-1B)): 1 µg/mL; MIC ([3]; read-out: ID-CAMHB, MIC, ID-CAMHB, FDA-CDC AR-BANK #0439 (aac(6′)-Il, aadA1b, BCR1, IMP-18, OXA-50)): 0.5 µg/mL; MIC ([3]; read-out: ID-CAMHB, MIC, ID-CAMHB, FDA-CDC AR-BANK #0441 (KPC-2)): 8 µg/mL; MIC ([3]; read-out: ID-CAMHB, MIC, ID-CAMHB, FDA-CDC AR-BANK #0444 (aac(6′)-Il, dfrB5, OXA-4, tet(G), VIM-2)): 4 µg/mL; MIC ([3]; read-out: ID-CAMHB, MIC, ID-CAMHB, FDA-CDC AR-BANK #0457 (aadA6, VIM-2)): 0.25 µg/mL; MIC ([4]; ATCC27853, read-out: ID-CAMHB, MIC): 0.0625 µg/mL; MIC ([5]; ATCC25922, read-out: ID-CAMHB, MIC): 0.125 µg/mL
CC(C)(O/N=C(\C(=O)N[C@@H]1C(=O)N2C(C(=O)O)=C(C[N+]3(CCNC(=O)c4ccc5cc(O)c(O)cc5c4)CCCC3)CS[C@H]12)c1csc(N)n1)C(=O)O [Compound 8] | 0.25 µg/mL | 0.0625 µg/mL | 8 µg/mL | 0.125 µg/mL | 2 µg/mL | 2 µg/mL | 1 µg/mL | 0.25 µg/mL | 2 µg/mL | 2 µg/mL | 1 µg/mL | 4 µg/mL | 4 µg/mL | 0.25 µg/mL | 0.25 µg/mL | 0.25 µg/mL | 
CC(C)(O/N=C(\C(=O)N[C@@H]1C(=O)N2C(C(=O)O)=C(C[N+]3(CCNC(=S)c4ccc(O)c(O)c4Cl)CCCC3)CS[C@H]12)c1csc(N)n1)C(=O)O [Compound 7] | 2 µg/mL | 0.25 µg/mL | > 32 µg/mL | 0.125 µg/mL | 4 µg/mL | 1 µg/mL | 1 µg/mL | 0.5 µg/mL | 2 µg/mL | 4 µg/mL | 8 µg/mL | 8 µg/mL | 32 µg/mL | 1 µg/mL | 0.125 µg/mL | 0.125 µg/mL | 
CC(C)(O/N=C(\C(=O)N[C@@H]1C(=O)N2C(C(=O)O)=C(C[N+]3(CCNC(=N)c4ccc(O)c(O)c4Cl)CCCC3)CS[C@H]12)c1csc(N)n1)C(=O)O [Compound 9] | > 32 µg/mL | > 32 µg/mL | > 32 µg/mL | > 32 µg/mL | > 32 µg/mL | > 32 µg/mL | 16 µg/mL | > 32 µg/mL | > 32 µg/mL | > 32 µg/mL | > 32 µg/mL | > 32 µg/mL | > 32 µg/mL | > 32 µg/mL | > 32 µg/mL | 16 µg/mL | 
